From patent publication US11384182B2, “Supramolecular polymer composition and method of preparation thereof” (City University of Hong Kong, priority 2019, dated 2022)

Tests used:
[1] = cited from earlier work
[2] = release of carvacrol in air by weight loss; format: physicochemical; conditions: at 100 days
Procedure: The amount of carvacrol, i.e. the hydrophobic material in the composition, released in air was calculated by weight loss and is illustrated in FIG. 8C. The amount of carvacrol released in water was monitored by UV-vis scanning spectrophotometer (Shimadzu 1700), wherein

Structure (SMILES): Cc1ccc(C(C)C)cc1O [carvacrol]
- saturation concentration in water [1]: about 3 mM
- reduction of the original mass [2]: approximately 40%
